Data from patent US20030215397A1, “Method of treatment of skin diseases related to microbial antigens in the skin” (priority 2002, published 2003).

Key:
psoriatic lesion = experiment: Topical treatment of a psoriatic lesion in a patient, appearance of the lesion; assay type: in vivo, human; conditions: person with severe psoriasis; pump spray with 40% by weight isopropyl myristate in alcohol carrier, on one lesion twice a day for two weeks
Protocol: (§1) A person, suffering from severe psoriasis came for treatment. Their psoriasis had become severe at a time about 20 years earlier when they had recurring sore throats and tonsilitis. Their sore throats had ceased, but their psoriasis persisted. A blood sample was taken to measure […] antibody level to Dnase-B, a streptococcal exoenzyme; It was determined that they were a streptococcal carrier. A 4 mm punch biopsy was taken at the same time from a psoriatic plaque on their posterior thigh. The biopsy was first exposed to an antibody to Streptozyme®, and stained using the LSAB test.
The patient was provided with a pump spray bottle containing 40% by weight of isopropyl myristate in an alcohol carrier, and instructed to spray the liquid on one particular lesion twice a day for two weeks. […] That site was biopsied and given the LSAB test, as before. The stain was negative, indicating the cleansing of the streptococcal antigen from the skin that had been treated with the 40% isopropyl myristate spray, and it was accompanied by a clearing of the lesion.
The composition in each case is liberally applied and the patient otherwise is permitted to carry out the usual hygiene, showering or bathing. […]

[1] = system: streptococcal antigen (Dnase-B) in the skin; experiment: LSAB stain (antibody to Streptozyme) of a biopsy from the treated psoriatic lesion site; assay type: in vivo, streptococci; conditions: person with severe psoriasis; pump spray with 40% by weight isopropyl myristate in alcohol carrier, on one lesion twice a day for two weeks; stain positive before treatment
Protocol: Anti-body levels of many such patients, to streptococcal exoenzymes, deoxyribonuclease B, hyaluronidase, streptolysin O, and Streptozyme (a commercial product made from streptococci and containing Dnase-B as one of its constituents., a registered trademark of Carter-Wallace, Inc. and available from Wampole Labs, of Cranbury, N.J.), when measured will be found to be elevated prior to the treatment in accordance with this invention. The presence of these antigens are tested for by using a primary rabbit polyclonal antibody to, e.g., Streptozyme® with a linked streptavidin biotin alkaline phosphatase (“LSAB”) amplification stain, available from Dako, of Carpinteria, Calif. A prominent red stain on the biopsied skin indicates the presence of the antigens.
as §1, with “test. […]” for “test.”

## CCCCCCCCCCCCCC(=O)OC(C)C [isopropyl myristate]
Psoriatic lesion
  clearing of the sprayed lesion: substantially clear of the disease
[1]
  LSAB stain for streptococcal antigen in the biopsied treated site: negative
